Assay results as given in patent publication US20100144737A1, “METHODS FOR INHIBITING T HELPER CELL DIFFERENTIATION” (FibroGen, Inc., priority 2008, published 2010).

What was measured:
[1] = test system: Naive T helper cells; assay: Secretion of pro-inflammatory cytokines (IFN-γ, TNF-α) from TCR-stimulated T helper cells, conditioned media; format: cell-based, human; conditions: seven days
Description: The effect of methods and compounds of the present invention on T helper cell secretion of pro-inflammatory cytokines was evaluated as follows. Naive T helper cells (AllCells LLC, Emeryville, Calif.) obtained from human cord blood were stimulated (i.e., T cell receptor (TCR) stimulation) by seeding into 96-well culture dishes coated with 5 μg/ml anti-CD3 antibody (clone UCHT1, R&D Systems, Minneapolis, Minn.) (Tanaka et.al. (1989) J Immunol 142:2791-2795.), and 5 μg/ml anti-CD28 antibody (clone ANC28.1/D10, Ancell Corporation, Bayport, Minn.), and cultured at 37° C., 5% CO2 in RPMI-1640 (Mediatech Inc., Herndon, Va.) containing 1% FBS, 1 U/ml penicillin-1 μg/ml streptomycin (Invitrogen Corporation, Carlsbad, Calif.), and 50 U/ml IL-2 (Roche Diagnostics Corporation, Indianapolis, Ind.). At the time of seeding, cells were cultured with media alone or with media containing 2 ng/ml IL-12 (R&D Systems, Minneapolis, Minn.) (to stimulate differentiation of the T helper cells into Th1 cells) and 10 μg/ml anti-IL4 antibody (R&D Systems, Minneapolis, Minn.) (to block differentiation of the T helper cells into Th2 cells). Compound A or 1% DMSO (Veh) was added to the existing media and the cells were cultured for an additional seven days. The conditioned media was then collected from the cell cultures and analyzed for interferon-gamma (IFN-γ) and tumor necrosis factor-alpha (TNF-α) levels using MS2400 Human Tissue Culture Cytokine Detection Kits (MesoScale Technologies, Gaithersburg, Md.) according to the manufacturer's instructions. In another series of experiments, the effect of methods and compounds of the present invention on T helper cell secretion of pro-inflammatory cytokines was evaluated as follows. Naive T helper cells were stimulated substantially as described above with the following modification: cell cultures contained 100 U/ml penicillin-100 U/ml streptomycin. Various compounds of the present invention or 1% DMSO (Veh) was added to the existing media and the cells were cultured for an additional six days. Following stimulation with IL-12, conditioned media was then collected from the cell cultures and analyzed for interferon-gamma (IFN-γ) levels using MS2400 Human Tissue Culture Cytokine Detection Kits (MesoScale Technologies, Gaithersburg, Md.) according to the manufacturer's instructions.

[2] = test system: naïve T helper cells; assay: T helper cell number and viability (Guava ViaCount); format: cell-based, human; conditions: day 7
Description: To examine the effect of compounds and methods of the present invention on T helper cell number and viability, the following studies were performed. Human cord blood naive T helper cells (AllCells LLC, Emeryville, Calif.) were stimulated (i.e., T cell receptor (TCR) stimulation) by seeding into 96-well culture dishes coated with 5 μg/ml anti-CD3 antibody (clone UCHT1, R&D Systems, Minneapolis, Minn.), and 5 μg/ml anti-CD28 antibody (clone ANC28.1/D10, Ancell Corporation, Bayport, Minn.), and cultured at 37° C, 5% CO2 in RPMI-1640 (Mediatech Inc., Herndon, Va.) containing 1% FBS, 1 U/ml penicillin-1 μg/ml streptomycin (invitrogen Corporation, Carlsbad, Calif.), and 50 U/ml IL-2 (Roche Diagnostics Corporation, Indianapolis, Ind.). […] The T helper cells were then collected and cell number and cell viability were analyzed using Guava ViaCount reagents and the Guava PCA System (Guava Technologies, Hayward, Calif.).
In another set of experiments, the effect of compounds and methods of the present invention on T helper cell number and viability was determined. […] The T helper cells were then collected and cell number and cell viability were analyzed using Guava ViaCount reagents and the Guava PCA System (Guava Technologies, Hayward, Calif.).

[3] = test system: activated T cells (PMBCs); assay: IFN-γ and TNF-α levels ex vivo following T cell activation in vivo (peptidoglycan-polysaccharide polymer injection); parameters: species or system Lewis rats; conditions: 40 mg/kg oral gavage, days 28-44; PMBCs isolated day 44, anti-CD3, 72 h, ELISA
Description: The effect of methods and compounds of the present invention on INF-γ and TNF-α expression following in vivo activation was examined as follows. In these experiments, in vivo T cell activation was first induced by eliciting an inflammatory reaction in rats by injection of peptidoglycan-polysaccharide polymers. An exemplary compound of the present invention was then administered to the animals. T cells were then isolated from the blood of the animals and analyzed ex vivo for IFN-γ and TNF-α secretion. Female Lewis rats (150-200 gm; Harlan, Indianapolis, Ind.) were injected intra-peritoneal with peptidoglycan-polysaccharide polymers (15 μg/gm body weight, Lee Laboratories, Grayson, Ga.). Animals were administered Compound A (40 mg/kg) via oral gavage on days 28, 30, 32, 35, 37, 39, 42, and 44 following peptidoglycan-polysaccharide polymer injection. Peripheral blood mononuclear cells (PMBCs) were isolated from the blood of the animals by Ficol gradient (BD Vacutainer CPT tubes) on day 44. Equal numbers of PMBCs (50,000 cells/well) were plated on culture dishes coated with anti-CD3 antibodies in RPMI-1640 media containing 10% serum, and the cells were cultured for 72 h. Supernatants from the cell cultures were tested for IFN-γ and TNF-α levels using commercially-available ELISA assays (R&D).

[4] = TCR-stimulated T helper cells with 2 ng/ml IL-12 and anti-IL4 antibody, vs IL-12 and vehicle
[5] = TCR-stimulated T helper cells, without IL-12 addition, vs vehicle

In the case of `Cc1nc(C(=O)NCC(=O)O)c(O)c2ccc(Oc3ccccc3)cc12` [Compound A, [(4-Hydroxy-1-methyl-7-phenoxy-isoquinoline-3-carbonyl)-amino]-acetic acid], the “IL-12-induced increase in IFN-γ levels” value [1, 4] is reported as “inhibited the increase”, the “IL-12-induced increase in TNF-α levels” value [1, 4] is reported as “inhibited the increase” and the “IFN-γ levels in the conditioned media” value [1, 5] is reported as “reduction”. The “TNF-α levels in the conditioned media” value [1, 5] was “reduction”, the “percent of viable T helper cells” value [2] was “did not decrease” and the “total number of viable T helper cells” value [2] was “did not decrease”. The “IFN-γ secretion from the activated T cells, measured ex vivo” value [3] was “effective at decreasing” and the “TNF-α secretion from the activated T cells, measured ex vivo” value [3] was “effective at decreasing”.
